Measured values from patent US10689394B2, “Thieno[2,3-b]pyridine derivative, quinoline derivative, and use thereof” (The University of Tokyo, priority 2016, dated 2020).

biological target: T1, binding between ALS-related mutant SOD1 (Flag-SOD1 G93A) and Derlin-1 (Derlin-1-HA) (Homo sapiens, UniProt P00441+Q9BUN8, G94A); test: Cell-based co-immunoprecipitation assay of mutant SOD1 (G93A)-Derlin-1 binding; parameters: key to Activity value (score): a compound exhibiting no inhibitory activity is set at 0; a compound exhibiting inhibitory activity is set at 1; a compound exhibiting significant inhibitory activity is set at 2; a compound having higher inhibitory activity than the compound of Example 1 is set at 3; conditions: assay concentration 2.6 μM; HEK293A cells overexpressing Flag-SOD1 G93A and Derlin-1-HA
T1 construct: expressed in transfected cells; host or cells: HEK293A
Description: As cells, human embryonic kidney-derived, Human Embryonic Kidney 293A (HEK293A) cells were used. The cells were cultured in High Glucose Dulbecco's modified Eagle's medium (DMEM: 4.5 mg/ml glucose, Sigma) supplemented with complement-inactivated 10% fetal bovine serum (FBS, Vitromex) and 100 units/mL Penicillin G (Meiji), which was placed in an incubator set at conditions of 37° C. and 5% CO2.
Transfection into the HEK293A cells was carried out using PEI-Max (Polyscience) at a ratio of 3 μL of PEI-Max to 1 μg of plasmid. DMEM was mixed with PEI-Max, and the mixture was then left at rest for 5 minutes. Thereafter, the reaction mixture was added to the plasmid DNA dissolved in DMEM, and the thus obtained mixture was further left at rest for 15 minutes. After seeding, the culture was carried out for 12 to 24 hours, and the resultant was then added to a culture medium of cells, in which the medium had been exchanged with DMEM supplemented only with 10% FBS.
pcDNA3.0-Derlin-1-HA, pcDNA3.0-Flag-SOD1 G93A, and 123 types of other mutants.
In the lysis of HEK293A cells for use in a co-immunoprecipitation experiment, an IP lysis buffer (20 mM Tris-HCl (pH 7.5), 150 mM NaCl, 10 mM EDTA (pH 8.0), 1% Triton-X 100, 5 μg/mL leupeptin, and 1 mM phenylmethylsulfonyl fluoride) was used.
After the transfection on a 24-well plate, the cells were cultured for 12 hours or 24 hours, and the obtained cell culture was exchanged with 200 μL of medium. Thereafter, 1% DMSO or various types of compounds having each different concentration were added into the culture. Thirty-six hours or twenty-four hours later, the cells were incubated in the IP lysis buffer (300 μL/well) at 4° C. for 25 minutes, so that the cells were lysed. The cell lysate was centrifuged at 4° C. at 15000 rpm for 10 minutes, and a supernatant was then recovered. To this supernatant, Anti-Flag M2 affinity gel was added in a liquid amount of 20 μL, and they were allowed to react with each other by subjecting the obtained mixture to inversion mixing at 4° C. for 25 minutes. After completion of the reaction, a supernatant was removed, and the residue was washed twice with High salt wash buffer (1% Triton X 100, 500 mM NaCl, 20 mM Tris-HCl (pH 7.5), and 5 mM EGTA), and was then washed once with Low salt wash buffer (150 mM NaCl, 20 mM Tris-HCl (pH 7.5), and 5 mM EGTA). Finally, 50 μL of a 2×SDS sample buffer was added to the resultant, and the obtained mixture was then boiled at 98° C. for 3 minutes to obtain an SDS-PAGE sample. Regarding the lysate, a 2×SDS sample buffer was added in an amount equal to the supernatant, and the obtained mixture was then boiled at 98° C. for 3 minutes to obtain an SDS-PAGE sample.
After completion of SDS-PAGE, a protein was transferred from the gel into a polyvinylidene difluoride membrane (PVDF) ([…], Pall), and was then blocked with TBS-T (150 mM NaCl, 50 mM Tris-HCl (pH 8.0), and 0.05% Tween 20) supplemented with 5% skimmed milk at room temperature for 2 hours or more. Thereafter, a primary antibody diluted with TBS-T supplemented with 5% bovine serum albumin and 0.1% NaN3 was allowed to bind to each molecule on the PVDF membrane at 4° C. for 12 hours or more. After completion of the reaction, a secondary antibody (HRP-linked 2nd antibody) diluted with TBS-T supplemented with 5% skimmed milk was allowed to bind to the primary antibody at room temperature for 1 hour. Thereafter, the resultant was washed with TBS-T for 15 minutes, 3 or more times, and detection was then carried out using an enhanced chemiluminescence (ECL) system.
With regard to the compounds of the present invention (Example Compound 1 to Example Compound 47), whether or not the present compound can inhibit the binding between ALS-related mutant SOD1 and Derlin-1 in a cell by being added into a cell culture solution was examined according to a co-immunoprecipitation experiment. […]

T1 sequence (P00441 whole entry G94A, species assumed): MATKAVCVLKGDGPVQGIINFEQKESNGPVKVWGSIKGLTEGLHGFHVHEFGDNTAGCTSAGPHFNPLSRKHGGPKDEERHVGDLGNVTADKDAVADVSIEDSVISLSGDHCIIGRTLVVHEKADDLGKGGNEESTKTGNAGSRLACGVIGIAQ
T1 sequence (Q9BUN8 whole entry, species assumed, stated change not applied): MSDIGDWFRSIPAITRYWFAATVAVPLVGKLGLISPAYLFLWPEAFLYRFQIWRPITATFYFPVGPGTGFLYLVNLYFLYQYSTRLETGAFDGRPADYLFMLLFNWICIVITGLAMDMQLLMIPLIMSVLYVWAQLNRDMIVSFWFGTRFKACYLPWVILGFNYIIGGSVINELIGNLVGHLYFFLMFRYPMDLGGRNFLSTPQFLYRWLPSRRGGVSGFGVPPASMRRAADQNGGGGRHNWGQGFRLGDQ

With `Nc1c(C(=O)Nc2ccc(-c3cc(C(F)(F)F)cc(C(F)(F)F)c3)cc2)sc2nc(-c3ccncc3)ccc12` [Example 7] as the compound, how does the “Activity value (score)” value read?
Its value is 1.

same assay, conditions: assay concentration 5 μM; HEK293A cells overexpressing Flag-SOD1 G93A and Derlin-1-HA

How did the “Activity value (score)” value turn out when `C=CCN(C(=O)c1sc2nc(-c3ccncc3)ccc2c1N)c1cc(F)ccc1F` [Example 8, N-allyl-3-amino-N-(2,5-difluorophenyl)-6-(4-pyridinyl)thieno[2,3-b]pyridine-2-carboxamide] was run?
The value was 1.

same assay, conditions: assay concentration 20 μM; HEK293A cells overexpressing Flag-SOD1 G93A and Derlin-1-HA

With `C#CCN(C(=O)c1sc2nc(-c3cccnc3)ccc2c1N)c1ccccc1` [Example 2, N-propargyl-3-amino-N-phenyl-6-(3-pyridinyl)thieno[2,3-b]pyridine-2-carboxamide] as the compound, how does the “Activity value (score)” value read?
The value was 2.

`Nc1c(C(=O)Nc2ccc(-c3cc(C(F)(F)F)cc(C(F)(F)F)c3)cc2)sc2nc(-c3cccnc3)ccc12` [Example 30, 3-amino-N-(3′,5′-bis(trifluoromethyl)-[1,1′-biphenyl]-4-yl)-6-(3-pyridinyl)thieno[2,3-b]pyridine-2-carboxamide] was tested. Which “Activity value (score)” value did it give?
Its value is 1.

How did the “Activity value (score)” value turn out when `Nc1c(C(=O)Nc2ccc(I)cc2)sc2nc(-c3cccnc3)ccc12` [Example 27, 3-amino-N-(4-iodophenyl)-6-(3-pyridinyl)thieno[2,3-b]pyridine-2-carboxamide] was run?
Its value is 1.

For `Nc1c(C(=O)Nc2ccncc2)sc2nc(-c3ccncc3)ccc12` [Example 32, 3-amino-N-(4-pyridinyl)-6-(4-pyridinyl)thieno[2,3-b]pyridine-2-carboxamide], which “Activity value (score)” value is on record?
The value was 1.

For `Nc1c(C(=O)N(Cc2ccccc2)c2ccccc2)sc2nc(-c3cccnc3)ccc12` [Example 37, 3-amino-N-benzyl-N-phenyl-6-(3-pyridinyl)thieno[2,3-b]pyridine-2-carboxamide], which “Activity value (score)” value is on record?
Its value is 2.

`C=CCN(C(=O)c1sc2nc(-c3cccnc3)ccc2c1N)c1cccc(F)c1F` [Example 16, N-allyl-3-amino-N-(2,3-difluorophenyl)-6-(3-pyridinyl)thieno[2,3-b]pyridine-2-carboxamide] was tested. Which “Activity value (score)” value did it give?
Its value is 2.

For `Nc1c(C(=O)N2CCCCc3ccccc32)sc2nc(-c3cccnc3)ccc12` [Example 14, [3-amino-6-(3-pyridinyl)thieno[2,3-b]2-pyridinyl](2,3,4,5-tetrahydro-1H-benzo[b]azepin-1-yl)methanone], which “Activity value (score)” value is on record?
Its value is 2.

With `COc1cccc(N(CC=C(C)C)C(=O)c2sc3nc(-c4ccncc4)ccc3c2N)c1` [Example 45, 3-amino-N-(3-methoxyphenyl)-N-prenyl-6-(4-pyridinyl)thieno[2,3-b]pyridine-2-carboxamide] as the compound, how does the “Activity value (score)” value read?
Its value is 1.

With `CCCN(C(=O)c1sc2nc(-c3cccnc3)ccc2c1N)c1ccccc1` [Example 10, N-n-propyl-3-amino-N-phenyl-6-(3-pyridinyl)thieno[2,3-b]pyridine-2-carboxamide] as the compound, how does the “Activity value (score)” value read?
The value was 2.

How did the “Activity value (score)” value turn out when `C=C(C)CN(C(=O)c1sc2nc(-c3ccncc3)ccc2c1N)c1ccccc1` [Example 47, 3-amino-N-metallyl-N-phenyl-6-(4-pyridinyl)thieno[2,3-b]pyridine-2-carboxamide] was run?
Its value is 2.

For `CC(C)=CCN(C(=O)c1sc2nc(-c3ccncc3)ccc2c1N)c1ccc(C(C)(C)C)cc1` [Example 43, 3-amino-N-(4-tert-butylphenyl)-N-(3-methylbut-2-en-1-yl)-6-(4-pyridinyl)thieno[2,3-b]pyridine-2-carboxamide], which “Activity value (score)” value is on record?
The value was 1.

With `Cc1cccc(C)c1NC(=O)c1sc2nc(-c3cccnc3)ccc2c1N` [Example 25, 3-amino-N-(2,6-dimethylphenyl)-6-(3-pyridinyl)thieno[2,3-b]pyridine-2-carboxamide] as the compound, how does the “Activity value (score)” value read?
Its value is 1.

With `Nc1c(C(=O)Nc2ccc(OCc3ccccc3)cc2)sc2nc(-c3cccnc3)ccc12` [Example 26, 3-amino-N-[4-(benzyloxy)phenyl]-6-(3-pyridinyl)thieno[2,3-b]pyridine-2-carboxamide] as the compound, how does the “Activity value (score)” value read?
Its value is 1.

Which “Activity value (score)” value does the source give for `Nc1c(C(=O)N2CCCc3ccccc32)sc2nc(-c3cccnc3)ccc12` [Example 3, (3-Amino-6-(3-pyridinyl)thieno[2,3-b]2-pyridinyl)(3,4-dihydro-1(2H)-quinolyl)methanone] here?
Its value is 2.

With `C#CCCCOCC=CCN(C(=O)c1sc2nc(-c3cccnc3)ccc2c1N)c1ccccc1` (stereo in doubt) [Example 38, 3-amino-N-((E)-4-(pent-4-ynyloxy)but-2-enyl)-N-phenyl-6-(3-pyridinyl)thieno[2,3-b]pyridine-2-carboxamide] as the compound, how does the “Activity value (score)” value read?
Its value is 2.
